Assay results: ChEMBL document CHEMBL4732177 (J Med Chem, 2021)
Bridge positions count the residues as written; N and C are the ends. Square brackets hold non-standard residues; d marks the D form. Peptide text beside a SMILES is read from it. NMeR = CN[C@@H](CCCNC(=N)N)C(=O)O; AllylGly = C=CC[C@H](N)C(=O)O; Tle = CC(C)(C)[C@H](N)C(=O)O

Legend:
[1] = biological target: Neurotensin receptor type 1 (Homo sapiens, UniProt P30989); assay: Displacement of [125I]Tyr3-neurotensin from human recombinant NTS1 stably expressed in CHO-K1 cell membranes incubated for 60 mins by gamma counter analysis; design: species or system Cell membrane
[2] = biological target: Neurotensin receptor type 2 (Homo sapiens, UniProt O95665); assay: Displacement of [125I]Tyr3-neurotensin from human recombinant NTS2 stably expressed in human 1321N1 cell membranes incubated for 60 mins by gamma counter analysis; design: species or system Cell membrane
[3] = biological target: Neurotensin receptor type 1 (Mus musculus, UniProt O88319); assay: Displacement of [3H]-neurotensin from NTS1 in mouse brain membrane incubated for 30 mins by liquid scintillation counter analysis; format: cell membranes
Chain of Neurotensin receptor type 1 (Mus musculus, UniProt O88319) (O88319 whole entry): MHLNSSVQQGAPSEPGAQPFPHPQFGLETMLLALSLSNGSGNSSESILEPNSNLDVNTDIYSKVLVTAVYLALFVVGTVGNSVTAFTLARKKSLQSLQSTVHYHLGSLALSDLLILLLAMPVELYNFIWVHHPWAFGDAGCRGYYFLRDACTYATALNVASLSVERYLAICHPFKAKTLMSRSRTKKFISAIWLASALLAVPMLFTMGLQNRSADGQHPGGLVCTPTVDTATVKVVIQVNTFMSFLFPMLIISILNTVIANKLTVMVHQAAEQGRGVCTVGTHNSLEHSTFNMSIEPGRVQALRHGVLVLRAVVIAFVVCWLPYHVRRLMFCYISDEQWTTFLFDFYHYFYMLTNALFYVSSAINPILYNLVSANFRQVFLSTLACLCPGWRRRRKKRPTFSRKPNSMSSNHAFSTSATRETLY

Chain of Neurotensin receptor type 1 (Homo sapiens, UniProt P30989) (P30989 whole entry): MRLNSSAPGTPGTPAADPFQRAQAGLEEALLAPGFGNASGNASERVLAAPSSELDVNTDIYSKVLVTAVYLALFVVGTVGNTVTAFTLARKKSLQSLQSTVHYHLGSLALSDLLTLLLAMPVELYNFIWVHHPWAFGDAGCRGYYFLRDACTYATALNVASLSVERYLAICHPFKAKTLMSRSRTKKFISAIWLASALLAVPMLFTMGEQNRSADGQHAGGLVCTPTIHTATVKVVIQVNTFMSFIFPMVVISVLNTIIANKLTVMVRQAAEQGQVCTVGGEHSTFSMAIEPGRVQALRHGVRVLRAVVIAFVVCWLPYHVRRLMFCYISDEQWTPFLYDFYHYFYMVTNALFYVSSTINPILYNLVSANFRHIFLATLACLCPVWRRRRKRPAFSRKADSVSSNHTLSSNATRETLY
Chain of Neurotensin receptor type 2 (O95665 whole entry): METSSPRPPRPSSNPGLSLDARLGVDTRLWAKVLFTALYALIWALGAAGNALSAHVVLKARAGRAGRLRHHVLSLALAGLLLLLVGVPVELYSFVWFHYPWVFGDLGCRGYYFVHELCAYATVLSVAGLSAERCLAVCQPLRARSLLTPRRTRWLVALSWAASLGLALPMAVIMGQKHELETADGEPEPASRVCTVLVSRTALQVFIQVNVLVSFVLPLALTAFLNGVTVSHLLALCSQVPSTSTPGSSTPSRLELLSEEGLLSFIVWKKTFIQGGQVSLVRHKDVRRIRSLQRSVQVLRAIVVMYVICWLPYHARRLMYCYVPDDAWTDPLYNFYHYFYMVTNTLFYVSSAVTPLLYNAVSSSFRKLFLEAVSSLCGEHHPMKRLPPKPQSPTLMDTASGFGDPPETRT

Molecule	Ki [1] [nM]	Ki [2] [nM]	Ki [3] [nM]
CC[C@H](C)[C@H](NC(=O)[C@H](Cc1ccc(O)cc1)NC(=O)[C@H](C)NC(=O)[C@H](CCCNC(=N)N)NC(=O)[C@H](CCCNC(=N)N)NC(=O)[C@@H]1CCCN1C(=O)[C@H](CCCCN)NC(=O)[C@H](CC(N)=O)NC(=O)[C@H](CCC(=O)O)NC(=O)[C@H](Cc1ccc(O)cc1)NC(=O)[C@H](CC(C)C)NC(=O)[C@@H]1CCC(=O)N1)C(=O)N[C@@H](CC(C)C)C(=O)O	161	16	–
CC[C@H](C)[C@H](NC(=O)[C@H](Cc1ccc(O)cc1)NC(=O)[C@@H]1CCCN1C(=O)[C@H](CCCNC(=N)N)NC(=O)[C@H](CCCNC(=N)N)NC(=O)[C@@H]1CCCN1C(=O)[C@H](C)NC(=O)[C@H](CC(N)=O)NC(=O)[C@H](CCC(=O)O)NC(=O)[C@H](Cc1ccc(O)cc1)NC(=O)[C@H](CC(C)C)NC(=O)[C@@H]1CCC(=O)N1)C(=O)N[C@@H](CC(C)C)C(=O)O	6	9.3	–
CN[C@@H](CCCNC(=N)N)C(=O)N[C@H]1CCCCNC(=O)CC[C@@H](C(=O)N[C@@H](CC(C)C)C(=O)O)NC(=O)[C@H](Cc2c[nH]c3ccccc23)NC(=O)[C@@H]2CCCN2C1=O (H-[NMeR]KPWEL-OH; lactam 2-5)	–	–	770
CC[C@@H](C)[C@H](NC(=O)[C@@H]1C/C=C\C[C@H](N)C(=O)N[C@@H](CCCCN)C(=O)N[C@@H](CCCCN)C(=O)N[C@@H](Cc2ccc(O)cc2)C(=O)N1)C(=O)N[C@@H](CC(C)C)C(=O)O	> 10000	1300	–
CC(C)C[C@H](NC(=O)[C@H](Cc1ccc(O)cc1)NC(=O)[C@H]1C/C=C\C[C@H](N)C(=O)N[C@@H](CCCCN)C(=O)N[C@@H](CCCCN)C(=O)N1)C(=O)O	> 100000	1100	–
CC[C@H](C)[C@H](NC(=O)[C@H](C)NC(=O)[C@@H]1CCCN1C(=O)[C@H](CCCN=C(N)N)NC(=O)[C@H](CCCN=C(N)N)NC(=O)[C@@H]1CCCN1C(=O)[C@H](CCCCN)NC(=O)[C@H](CC(N)=O)NC(=O)[C@H](CCC(=O)O)NC(=O)[C@H](Cc1ccc(O)cc1)NC(=O)[C@H](CC(C)C)NC(=O)[C@@H]1CCC(=O)N1)C(=O)N[C@@H](CC(C)C)C(=O)O	> 10000	590	–
CC[C@H](C)[C@H](NC(=O)[C@H](Cc1ccc(O)cc1)NC(=O)[C@@H]1CCCN1C(=O)[C@H](CCCNC(=N)N)NC(=O)[C@H](CCCNC(=N)N)NC(=O)[C@@H]1CCCN1C(=O)[C@H](CCCCN)NC(=O)[C@H](CC(N)=O)NC(=O)[C@H](CCC(=O)O)NC(=O)[C@H](Cc1ccc(O)cc1)NC(=O)[C@H](CC(C)C)NC(=O)[C@H](C)N)C(=O)N[C@@H](CC(C)C)C(=O)O	2	8.7	–
CC[C@H](C)[C@H](NC(=O)[C@H](Cc1ccc(O)cc1)NC(=O)[C@@H]1CCCN1C(=O)[C@H](CCCNC(=N)N)NC(=O)[C@H](CCCNC(=N)N)NC(=O)[C@@H]1CCCN1C(=O)[C@H](CCCCN)NC(=O)[C@H](C)NC(=O)[C@H](CCC(=O)O)NC(=O)[C@H](Cc1ccc(O)cc1)NC(=O)[C@H](CC(C)C)NC(=O)[C@@H]1CCC(=O)N1)C(=O)N[C@@H](CC(C)C)C(=O)O	2.4	8.8	–
CC(C)C[C@H](NC(=O)[C@H](Cc1ccc(O)cc1)NC(=O)[C@H]1C/C=C\C[C@H](N)C(=O)N[C@@H](CCCCN)C(=O)N[C@@H](CCCCN)C(=O)N2CCC[C@H]2C(=O)N1)C(=O)O	> 100000	2500	–
CC[C@@H](C)[C@H](NC(=O)[C@H](Cc1ccc(O)cc1)NC(=O)[C@@H]1C/C=C\C[C@H](N)C(=O)N[C@@H](CCCCN)C(=O)N[C@@H](CCCCN)C(=O)N1)C(=O)O	> 100000	> 10000	–
CC(C)C[C@@H]1NC(=O)[C@H](C(C)(C)C)NC(=O)[C@H](Cc2c[nH]c3ccccc23)NC(=O)[C@@H]2CCCN2C(=O)[C@H](CCCCN)NC(=O)[C@H](CCCNC(=N)N)NC1=O (cyclo(KPW[Tle]LR))	–	–	410
CC[C@H](C)[C@H](NC(=O)[C@H](Cc1ccc(O)cc1)NC(=O)[C@@H]1CCCN1C(=O)[C@H](CCCNC(=N)N)NC(=O)[C@H](CCCNC(=N)N)NC(=O)[C@@H]1CCCN1C(=O)[C@H](CCCCN)NC(=O)[C@H](CC(N)=O)NC(=O)[C@H](C)NC(=O)[C@H](Cc1ccc(O)cc1)NC(=O)[C@H](CC(C)C)NC(=O)[C@@H]1CCC(=O)N1)C(=O)N[C@@H](CC(C)C)C(=O)O	1.8	2.7	–
CC[C@@H](C)[C@H](NC(=O)[C@H](CC(C)C)NC(=O)[C@H](Cc1ccc(O)cc1)NC(=O)[C@@H]1C/C=C\C[C@H](N)C(=O)N[C@@H](CCCCN)C(=O)N[C@@H](CCCCN)C(=O)N1)C(=O)O	> 100000	> 10000	–
CC(C)C[C@H](NC(=O)[C@H](Cc1ccc(O)cc1)NC(=O)[C@@H]1CSSC[C@H](N)C(=O)N[C@@H](CCCCN)C(=O)N[C@@H](CCCCN)C(=O)N1)C(=O)O (H-CKKCYL-OH; disulfide 1-4)	> 100000	1500	–
CC[C@@H](C)[C@H](NC(=O)[C@H](Cc1ccc(O)cc1)NC(=O)[C@@H]1C/C=C\C[C@H](N)C(=O)N[C@@H](CCCCN)C(=O)N[C@@H](CCCCN)C(=O)N1)C(=O)N[C@@H](CC(C)C)C(=O)O	> 10000	> 10000	–
CC[C@H](C)[C@H](NC(=O)[C@H](Cc1ccc(O)cc1)NC(=O)[C@@H]1CCCN1C(=O)[C@H](CCCNC(=N)N)NC(=O)[C@H](CCCNC(=N)N)NC(=O)[C@@H]1CCCN1C(=O)[C@H](CCCCN)NC(=O)[C@H](CC(N)=O)NC(=O)[C@H](CCC(=O)O)NC(=O)[C@H](Cc1ccc(O)cc1)NC(=O)[C@H](C)NC(=O)[C@@H]1CCC(=O)N1)C(=O)N[C@@H](CC(C)C)C(=O)O	2.4	6.8	–
CC[C@H](C)[C@H](NC(=O)[C@H](Cc1ccc(O)cc1)NC(=O)[C@@H]1CCCN1C(=O)[C@H](CCCNC(=N)N)NC(=O)[C@H](CCCNC(=N)N)NC(=O)[C@H](C)NC(=O)[C@H](CCCCN)NC(=O)[C@H](CC(N)=O)NC(=O)[C@H](CCC(=O)O)NC(=O)[C@H](Cc1ccc(O)cc1)NC(=O)[C@H](CC(C)C)NC(=O)[C@@H]1CCC(=O)N1)C(=O)N[C@@H](CC(C)C)C(=O)O	2.9	4.6	–
CC[C@H](C)[C@H](NC(=O)[C@H](Cc1ccc(O)cc1)NC(=O)[C@H](CCCCN)NC(=O)[C@@H]1C/C=C\C[C@H](N)C(=O)N[C@@H](CCCCN)C(=O)N1)C(=O)N[C@@H](CC(C)C)C(=O)O (H-[AllylGly]K[AllylGly]KYIL-OH; staple (Z) 1-3)	> 100000	> 10000	–
CC[C@H](C)[C@H](NC(=O)[C@H](Cc1ccc(O)cc1)NC(=O)[C@@H]1CCCN1C(=O)[C@H](CCCNC(=N)N)NC(=O)[C@H](CCCNC(=N)N)NC(=O)[C@@H]1CCCN1C(=O)[C@H](CCCCN)NC(=O)[C@H](CC(N)=O)NC(=O)[C@H](CCC(=O)O)NC(=O)[C@H](C)NC(=O)[C@H](CC(C)C)NC(=O)[C@@H]1CCC(=O)N1)C(=O)N[C@@H](CC(C)C)C(=O)O	2.8	8.7	–
CC[C@H](C)[C@H](NC(=O)[C@H](Cc1ccc(O)cc1)NC(=O)[C@@H]1CCCN1C(=O)[C@H](CCCNC(=N)N)NC(=O)[C@@H](N)CCCNC(=N)N)C(=O)O	> 100000	620	–
CC(C)C[C@H](NC(=O)[C@H](Cc1ccc(O)cc1)NC(=O)[C@H]1C/C=C\C[C@@H](N)C(=O)N[C@@H](CCCCN)C(=O)N[C@@H](CCCCN)C(=O)N1)C(=O)O	> 100000	2200	–
CC[C@H](C)[C@H](NC(=O)[C@H](Cc1ccc(O)cc1)NC(=O)[C@@H]1CCCN1C(=O)[C@H](CCCNC(=N)N)NC(=O)[C@H](CCCNC(=N)N)NC(=O)[C@@H]1CCCN1C(=O)[C@H](CCCCN)NC(=O)[C@H](CC(N)=O)NC(=O)[C@H](CCC(=O)O)NC(=O)[C@H](Cc1ccc(O)cc1)NC(=O)[C@H](CC(C)C)NC(=O)[C@@H]1CCC(=O)N1)C(=O)N[C@@H](C)C(=O)O	> 10000	655	–
CC(C)C[C@H](NC(=O)[C@H](Cc1ccc(O)cc1)NC(=O)[C@@H]1C/C=C\C[C@@H](N)C(=O)N[C@@H](CCCCN)C(=O)N[C@@H](CCCCN)C(=O)N1)C(=O)O	> 100000	100	–
CC[C@H](C)[C@H](NC(=O)[C@H](Cc1ccc(O)cc1)NC(=O)[C@@H]1CCCN1C(=O)[C@H](CCCNC(=N)N)NC(=O)[C@H](C)NC(=O)[C@@H]1CCCN1C(=O)[C@H](CCCCN)NC(=O)[C@H](CC(N)=O)NC(=O)[C@H](CCC(=O)O)NC(=O)[C@H](Cc1ccc(O)cc1)NC(=O)[C@H](CC(C)C)NC(=O)[C@@H]1CCC(=O)N1)C(=O)N[C@@H](CC(C)C)C(=O)O	75	95	–
CC[C@@H](C)[C@H](NC(=O)[C@H](Cc1ccc(O)cc1)NC(=O)[C@@H]1C/C=C\C[C@H](NC(=O)[C@@H](N)CCCCN)C(=O)N[C@@H](CCCCN)C(=O)N1)C(=O)N[C@@H](CC(C)C)C(=O)O	> 100000	> 10000	–
CC(C)C[C@H](NC(=O)[C@H](Cc1ccc(O)cc1)NC(=O)[C@H]1CCCN1C(=O)[C@@H]1C/C=C\C[C@H](N)C(=O)N[C@@H](CCCCN)C(=O)N[C@@H](CCCCN)C(=O)N1)C(=O)O	> 100000	200	–
H-RRPYL-OH	> 100000	391	–
CC[C@H](C)[C@H](NC(=O)[C@H](Cc1ccc(O)cc1)NC(=O)[C@@H]1CCCN1C(=O)[C@@H](C)NC(=O)[C@H](CCCN=C(N)N)NC(=O)[C@@H]1CCCN1C(=O)[C@H](CCCCN)NC(=O)[C@H](CC(N)=O)NC(=O)[C@H](CCC(=O)O)NC(=O)[C@H](Cc1ccc(O)cc1)NC(=O)[C@H](CC(C)C)NC(=O)[C@@H]1CCC(=O)N1)C(=O)N[C@@H](CC(C)C)C(=O)O	174	–	–
CC(C)C[C@H](NC(=O)[C@H](Cc1ccc(O)cc1)NC(=O)[C@@H]1CCCC[C@H](N)C(=O)N[C@@H](CCCCN)C(=O)N[C@@H](CCCCN)C(=O)N1)C(=O)O	> 100000	90	–
CC[C@H](C)[C@H](NC(=O)[C@H](Cc1ccc(O)cc1)NC(=O)[C@@H]1CCCN1C(=O)[C@H](C)NC(=O)[C@H](CCCN=C(N)N)NC(=O)[C@@H]1CCCN1C(=O)[C@H](CCCCN)NC(=O)[C@H](CC(N)=O)NC(=O)[C@H](CCC(=O)O)NC(=O)[C@H](Cc1ccc(O)cc1)NC(=O)[C@H](CC(C)C)NC(=O)[C@@H]1CCC(=O)N1)C(=O)N[C@@H](CC(C)C)C(=O)O	–	10	–
